From ChEMBL document CHEMBL1938253, “Design and synthesis of novel macrocyclic 2-amino-6-arylpyrimidine Hsp90 inhibitors” (Bioorg Med Chem Lett, 2012)
pKd: −log10 of the molar value. Values after ≈ are worked out from the molar mass of the structure shown.

Key:
in vitro [1] = conditions: human, liver microsomes
physchem = conditions: fasted state simulated intestinal fluid
in vitro [2] = conditions: mouse, liver microsomes
[3] = target: Heat shock protein HSP 90-alpha (Homo sapiens, UniProt P07900)
Description: Binding affinity to N-terminus biotinylated human Hsp90 alpha by surface plasmon resonance assay

[4] = Tmax in athymic nu/nu mouse at 200 mg/kg, po; assay type: ADME, organism-based; design: dose 200 mg/kg, route oral; conditions: in vivo
[5] = Half life in athymic nu/nu mouse at 10 mg/kg, iv; assay type: ADME, organism-based; design: dose 10 mg/kg, route intravenous; conditions: in vivo

Structure (SMILES) | microsomal CLint at 1 h, 5 µM (in vitro [1]) [µL/min/mg] | solubility (physchem) [µM] | microsomal CLint at 1 h, 5 µM (in vitro [2]) [µL/min/mg] | pKd [3] | Tmax [4] [min] | half-life [5] [min]
Cc1cc(C)c2cc1C(=O)NCCNC(=O)CCCSc1cc-2nc(N)n1 | 5.4 | 106 (≈ 40.9 µg/mL) | 3.6 | 9.21 |  | 
Cc1cc(C)c2cc1C(=O)NCCCCCNC(=O)CCSc1cc-2nc(N)n1 | 1.7 | 169 (≈ 69.9 µg/mL) | 1.8 |  |  | 
Cc1cc(C)c2cc1C(=O)NCCCC(=O)NCCSc1cc-2nc(N)n1 | 1 | 117 (≈ 45.1 µg/mL) | 15 | 9.19 |  | 
CCOc1cc(C)c2cc1C(=O)NCCCOc1cccc(c1)Sc1cc-2nc(N)n1 |  | 186 (≈ 81.2 µg/mL) |  | 8.00 |  | 
Cc1cc(C)c2cc1C(=O)NCCOC(=O)NCCSc1cc-2nc(N)n1 | 3.5 | 911 (≈ 353 µg/mL) | 7.3 | 9.15 |  | 
Nc1nc2cc(n1)-c1cc(c(Cl)cc1Cl)OCCCCOc1cccc(c1)S2 |  | < 7 |  | 7.96 |  | 
CSc1nc(N)nc(-c2ccc3c4c(cc(Cl)cc24)COC3)n1 | 43 | 29 (≈ 10 µg/mL) | 60 | 8.47 | 30 | 15
COc1cc(C)c2cc1C(=O)NCCCOc1cccc(c1)Sc1cc-2nc(N)n1 |  | 260 (≈ 110 µg/mL) |  | 8.24 |  | 
Cc1ccc2cc1-c1cc(nc(N)n1)Sc1cccc(c1)OCCCO2 |  |  |  | 6.92 |  | 
Cc1cc(C)c2cc1C(=O)NCCCCNC(=O)CCSc1cc-2nc(N)n1 | 5.1 | 553 (≈ 221 µg/mL) | 3.5 |  |  | 
Cc1cc(C)c2cc1C(=O)NCCCCOc1cccc(c1)Sc1cc-2nc(N)n1 |  | 69 (≈ 29 µg/mL) |  |  |  | 
Cc1cc(C)c2cc1C(=O)NCCNC(=O)OCCSc1cc-2nc(N)n1 | 9.3 | 111 (≈ 43 µg/mL) | 21 | 9.10 |  | 
Cc1cc(C)c2cc1C(=O)NCCCCCOc1cccc(c1)Sc1cc-2nc(N)n1 |  | 39 (≈ 16.9 µg/mL) |  |  |  | 
